Like-named read-outs stand apart in the source and are kept apart here.
Assays:
acid-fast bacteria = type: cell-based
[1] = tested on: spores of sporulating bacteria; type: cell-based
MRSA or E. coli O-157 = type: cell-based; conditions: organic substance exceeding 50 ppm
[2] = tested on: putrefying bacteria in cooked rice; assay: Viable cell numbers in prepared food after spraying (Test Example 3); type: cell-based
Excerpt: (§1) With regards to the putrefaction process of prepared food, we investigated whether or not the present bactericidal disinfectant could stop the progress of putrefaction when sprayed of food, and the degree of that bactericidal effect. Normally disinfectants are not applied to prepared food, but very often scraps of food become lodged in a periodontal pocket, providing a nutritional source for bacteria, and since the present bactericidal disinfectant is composed of compounds which are recognized as food additives, it is important to assess these effects. Just-prepared cooked rice, tofu (soybean curd), spinach with sesame dressing, and fried meat and vegetables were each crushed, homogenized, and left at 28° C. for use as the samples. After samples had been left for 5 hours, part of each was taken and used to measure bacterial viable cell number, while the respective disinfectants were sprayed uniformly on the remaining samples. Viable cell numbers were measured 1, 2 and 24 hours after spraying. Water alone was sprayed as a control. After samples had been left for 24 hours part of each was taken for measuring viable cell number, and the respective disinfectants were sprayed uniformly on the remaining samples. As when the samples were left for 5 hours, viable cell numbers were measured 1 hour, 2 hours and 24 hours after spraying. Water alone was sprayed as a control. Viable cell numbers were measured by the poured plate method using 5 g of each sample diluted by ordinary methods.
(§2) The degree of putrefaction of course differs depending on the preparation method, ingredients and environment, but in the case of the cooked rice in this experiment, the viable cell number immediately after preparation was […] cells/g of sample, rising to 1×10^3 cells/g of sample after 5 hours, 5×10^5 cells/g of sample after 24 hours and 7×10^6 cells/g of sample after 48 hours. In the case of the tofu (soybean curd), the initial viable cell number was 2×10^4 cells/g of sample, rising to 8×10^5 cells/g of sample after 5 hours, 9×10^7 cells/g of sample after 24 hours, and 1×10^9 cells/g of sample after 48 hours, with considerable putrefaction. In the case of the spinach with sesame dressing, the viable cell number was 2×10^3 cells/g of sample immediately after preparation, rising to 5×10^4 cells/g of sample after 5 hours, 3×10^7 cells/g of sample after 24 hours and 2×10^8 cells/g of sample after 48 hours. In the case of the fried meat and vegetables, it was […] cells/g of sample immediately after preparation, rising to 2×10^3 cells/g of sample after 5 hours and 2×10^8 cells/g of sample after 24 hours, at which point there was a slight smell of putrefaction, while after 48 hours putrefaction has progressed still further and the viable cell number had risen to 3×10^9 cells/g of sample.

[3] = tested on: putrefying bacteria in fried meat and vegetables; assay: as above; type: cell-based
Excerpt: as §1, §2

[4] = tested on: putrefying bacteria in spinach with sesame dressing; assay: as above; type: cell-based
Excerpt: as §1, §2

[5] = tested on: putrefying bacteria in tofu (soybean curd); assay: as above; type: cell-based
Excerpt: as §1, §2

[6] = tested on: putrefying bacteria in prepared food; assay: Viable cell numbers in prepared food after spraying (Test Example 3), summary; type: cell-based
Excerpt: With regards to the putrefaction process of prepared food, we investigated whether or not the present bactericidal disinfectant could stop the progress of putrefaction when sprayed of food, and the degree of that bactericidal effect. Normally disinfectants are not applied to prepared food, but very often scraps of food become lodged in a periodontal pocket, providing a nutritional source for bacteria, and since the present bactericidal disinfectant is composed of compounds which are recognized as food additives, it is important to assess these effects. Just-prepared cooked rice, tofu (soybean curd), spinach with sesame dressing, and fried meat and vegetables were each crushed, homogenized, and left at 28° C. for use as the samples. […] Water alone was sprayed as a control. […] Water alone was sprayed as a control. […] Consequently, although complete eradication was not achieved, it can be said that bactericide was largely achieved. That is, there is the ability to halt development of putrefying bacteria in food and a bactericidal effect.

[7] = tested on: plaque adhering to supragingival calculus; assay: Viable cell numbers in plaque soaked in disinfectant (Test Example 4); type: cell-based; conditions: 60 minutes of immersion
[8] = tested on: detached skin wounds of mice; assay: Recovery from skin damage (Test Example 5); type: in vivo; conditions: applied to wound twice a day
thumbnails of volunteers = assay: Elongation of thumbnails (Test Example 7); type: in vivo, human; conditions: for Elongation of nails: Left (treated) thumbnail
Excerpt: As a general rule the bacterial disinfectants were applied immediately after hand washing. Nail growth and shape are closely tied to individual physical condition, and are a benchmark of health.

Red worms = conditions: for Deaths: groups of 10 red worms
Procedure: Red worms with a mean length of 40 mm were prepared in groups of 10, the annuli of the red worms were severed with a cutter, and ordinary concentrations of the various bactericidal disinfectants contained in absorbent cotton were applied to the severed ends twice a day, morning and night. Application to the ends was continued even after the severed ends healed, and recovery and growth were observed. Water was applied as a control.

[9] = sprayed after 5 hours, 1 hr after spraying
[10] = sprayed after 5 hours, 2 hrs after spraying
[11] = sprayed after 5 hours, 24 hrs after spraying
[12] = sprayed after 5 hours, just after spraying
[13] = sprayed after 24 hours, 1 hr after spraying
[14] = sprayed after 24 hours, 2 hrs after spraying
[15] = sprayed after 24 hours, 24 hrs after spraying
[16] = sprayed after 24 hours, just after spraying
[17] = 5 days after severing, 20 mm when severed

Structure (SMILES): OO [3% aqueous hydrogen peroxide, hydrogen peroxide]
- time required to kill acid-fast bacteria (acid-fast bacteria): a minute or more
- effect against spores [1]: ineffective
- bactericidal effect in presence of organic substance (MRSA or E. coli O-157): A similar tendency was seen
- viable cell number [2, 9]: 1 × 10^2 cells/g of sample
- viable cell number [2, 10]: 1.8 × 10^2 cells/g of sample
- viable cell number [2, 11]: 5 × 10^4 cells/g of sample
- viable cell number [2, 12]: 2 × 10^2 cells/g of sample
- viable cell number [2, 13]: 9 × 10^3 cells/g of sample
- viable cell number [2, 14]: 2 × 10^4 cells/g of sample
- viable cell number [2, 15]: 8 × 10^5 cells/g of sample
- viable cell number [2, 16]: 4 × 10^4 cells/g of sample
- viable cell number [3, 9]: 2 × 10^2 cells/g of sample
- viable cell number [3, 10]: 4 × 10^2 cells/g of sample
- viable cell number [3, 11]: 5 × 10^6 cells/g of sample
- viable cell number [3, 12]: 5 × 10^2 cells/g of sample
- viable cell number [3, 13]: 5 × 10^4 cells/g of sample
- viable cell number [3, 14]: 1 × 10^5 cells/g of sample
- viable cell number [3, 15]: 4 × 10^8 cells/g of sample
- viable cell number [3, 16]: 6 × 10^6 cells/g of sample
- viable cell number [4, 9]: 4 × 10^2 cells/g of sample
- viable cell number [4, 10]: 5 × 10^2 cells/g of sample
- viable cell number [4, 11]: 1 × 10^5 cells/g of sample
- viable cell number [4, 12]: 1 × 10^3 cells/g of sample
- viable cell number [4, 13]: 5 × 10^3 cells/g of sample
- viable cell number [4, 14]: 5 × 10^3 cells/g of sample
- viable cell number [4, 15]: 7 × 10^6 cells/g of sample
- viable cell number [4, 16]: 4 × 10^4 cells/g of sample
- viable cell number [5, 9]: 2 × 10^3 cells/g of sample
- viable cell number [5, 10]: 3 × 10^4 cells/g of sample
- viable cell number [5, 11]: 6 × 10^6 cells/g of sample
- viable cell number [5, 12]: 5 × 10^4 cells/g of sample
- viable cell number [5, 13]: 3 × 10^4 cells/g of sample
- viable cell number [5, 14]: 5 × 10^4 cells/g of sample
- viable cell number [5, 15]: 1 × 10^8 cells/g of sample
- viable cell number [5, 16]: 7 × 10^5 cells/g of sample
- bactericidal effect on putrefying bacteria in food [6]: most of the bacteria survived immediately after spraying
- survival of bacteria living inside plaque [7]: half survived
- Recovery: Complete recovery (coat grown back) [8]: 40 days
- Recovery: Skin with roughly original thickness [8]: 15 days
- Recovery: Thin skin overall [8]: 5 days
- Elongation of nails (thumbnails of volunteers; 10 days): 0.9 mm
- Elongation of nails (thumbnails of volunteers; 20 days): 1.8 mm
- Elongation of nails (thumbnails of volunteers; 30 days): 2.7 mm
- Elongation of nails (thumbnails of volunteers; 40 days): 3.6 mm
- Elongation of nails (thumbnails of volunteers; 50 days): 4.5 mm
- Elongation of nails (thumbnails of volunteers; 60 days): 5.4 mm
- difference in elongation between right and left hands (thumbnails of volunteers; applied for 2 months): No significant differences in elongation
- length of severed red worms (Red worms; [17]): 21 mm
- length of severed red worms (Red worms; 10 days after severing): 22 mm
- length of severed red worms (Red worms; 15 days after severing): 23 mm
- length of severed red worms (Red worms; 20 days after severing): 24 mm
- length of severed red worms (Red worms; 30 days after severing): 25 mm
- length of severed red worms (Red worms; 40 days after severing): 27 mm
- length of severed red worms (Red worms; 50 days after severing): 28 mm
- Deaths (Red worms): 7

Structure (SMILES): CC(O)C(=O)O.CCOc1ccc2nc3cc(N)ccc3c(N)c2c1 [Acrinol, acrinol]
- bactericidal effect in presence of organic substance (MRSA or E. coli O-157): A similar tendency was seen
- survival of bacteria living inside plaque [7]: half survived
- Recovery: Complete recovery (coat grown back) [8]: 40 days
- Recovery: Skin with roughly original thickness [8]: 15 days
- Recovery: Thin skin overall [8]: 5 days
- Elongation of nails (thumbnails of volunteers; 10 days): 0.8 mm
- Elongation of nails (thumbnails of volunteers; 20 days): 1.6 mm
- Elongation of nails (thumbnails of volunteers; 30 days): 2.4 mm
- Elongation of nails (thumbnails of volunteers; 40 days): 3.3 mm
- Elongation of nails (thumbnails of volunteers; 50 days): 4.0 mm
- Elongation of nails (thumbnails of volunteers; 60 days): 4.8 mm
- length of severed red worms (Red worms; [17]): 21 mm
- length of severed red worms (Red worms; 10 days after severing): 22 mm
- length of severed red worms (Red worms; 15 days after severing): 23 mm
- length of severed red worms (Red worms; 20 days after severing): 24 mm
- length of severed red worms (Red worms; 30 days after severing): 27 mm
- length of severed red worms (Red worms; 40 days after severing): 29 mm
- length of severed red worms (Red worms; 50 days after severing): 30 mm
- Deaths (Red worms): 8
